Calls of active or inactive are those of the source. The calls are words filed in the database; no cut-off is given here.
Legend:
Mus musculus [1] = assay: Anticonvulsant activity in ip dosed Mus musculus Kunming (mouse) assessed as protection against subcutaneous pentylenetetrazole-induced seizures at 0.5 hr; assay type: functional
Mus musculus [2] = species on record: Mus musculus; assay: Protective index, ratio of TD50 for Mus musculus Kunming (mouse) to ED50 for inhibition of maximal electroshock-induced seizure in Mus musculus Kunming (mouse); assay type: functional
Mus musculus [3] = assay: Protective index, ratio of TD50 for Mus musculus Kunming (mouse) to ED50 for inhibition of maximal subcutaneous pentylenetetrazole-induced seizure in Mus musculus Kunming (mouse); assay type: functional
Mus musculus [4] = assay: Anticonvulsant activity in Mus musculus Kunming (mouse) assessed as protection against maximal electroshock-induced seizures at 100 mg/kg, ip at 0.5 hr; assay type: functional, organism-based; set-up: dose 100 mg/kg
[5] = Neurotoxicity in ip dosed Mus musculus Kunming (mouse) assessed as minimal motor impairment at 0.5 hr by rotarod test; assay type: toxicity, organism-based; conditions: in vivo
Mus musculus [6] = assay: Anticonvulsant activity in Mus musculus Kunming (mouse) assessed as protection against maximal electroshock-induced seizures at 100 mg/kg, ip at 4 hr; assay type: functional, organism-based; set-up: dose 100 mg/kg
Mus musculus [7] = assay: Anticonvulsant activity in ip dosed Mus musculus Kunming (mouse) assessed as protection against maximal electroshock-induced seizures at 0.5 hr; assay type: functional
Mus musculus [8] = assay: Anticonvulsant activity in Mus musculus Kunming (mouse) assessed as protection against subcutaneous pentylenetetrazole-induced seizures at 100 mg/kg, ip at 4 hr; assay type: functional, organism-based; set-up: dose 100 mg/kg
Mus musculus [9] = assay: Neurotoxicity in Mus musculus Kunming (mouse) assessed as minimal motor impairment at 300 mg/kg, ip at 0.5 hr by rotarod test; assay type: toxicity, organism-based; set-up: dose 300 mg/kg, route intraperitoneal; conditions: in vivo
Mus musculus [10] = assay: Neurotoxicity in Mus musculus Kunming (mouse) assessed as minimal motor impairment at 300 mg/kg, ip at 4 hr by rotarod test; assay type: toxicity, organism-based; set-up: dose 300 mg/kg, route intraperitoneal; conditions: in vivo
Mus musculus [11] = assay: Anticonvulsant activity in Mus musculus Kunming (mouse) assessed as protection against subcutaneous pentylenetetrazole-induced seizures at 100 mg/kg, ip at 0.5 hr; assay type: functional, organism-based; set-up: dose 100 mg/kg

Row | Compound | ED50 (Mus musculus [1]) [mg/kg] | Ratio TD50/ED50 (Mus musculus [2]) | Ratio TD50/ED50 (Mus musculus [3]) | Activity (Mus musculus [4]) | TD50 at 0.5 h [5] [mg/kg] | Activity (Mus musculus [6]) | ED50 (Mus musculus [7]) [mg/kg] | Activity (Mus musculus [8]) | Activity (Mus musculus [9]) | Activity (Mus musculus [10]) | Activity (Mus musculus [11])
1 | Cc1nncn1-c1ccc2nc(-c3ccccc3)oc2c1 | 75.6 | 6.3 | 2.3 | Active | 167 | Active | 26.5 | inactive | Toxic |  | 
2 | CCc1nncn1-c1ccc2nc(-c3ccccc3)oc2c1 |  |  |  |  |  |  |  | inactive |  | Non-toxic | 
3 | Fc1cccc(-c2nncn2-c2ccc3nc(-c4ccccc4)oc3c2)c1 |  |  |  |  |  | inactive |  | inactive | Non-toxic | Non-toxic | inactive
4 | Clc1cccc(-c2nncn2-c2ccc3nc(-c4ccccc4)oc3c2)c1 |  |  |  |  |  | inactive |  | inactive | Toxic | Non-toxic | 
5 | Fc1ccc(-c2nncn2-c2ccc3nc(-c4ccccc4)oc3c2)cc1 |  |  |  |  |  | inactive |  | inactive | Non-toxic | Non-toxic | inactive
6 | CCCCc1nncn1-c1ccc2nc(-c3ccccc3)oc2c1 |  |  |  |  |  | inactive |  | inactive | Non-toxic | Non-toxic | 
7 | Cc1ccc(-c2nncn2-c2ccc3nc(-c4ccccc4)oc3c2)cc1 |  |  |  |  |  | inactive |  | inactive | Toxic |  | 
8 | COc1cccc(-c2nncn2-c2ccc3nc(-c4ccccc4)oc3c2)c1 |  | 3.7 |  | Active | 249 | inactive | 66.5 | inactive |  | Non-toxic | inactive
9 | c1ccc(-c2nc3ccc(-n4cnnc4-c4ccccc4)cc3o2)cc1 |  | 4.1 |  | Active | 266 |  | 65.4 | inactive |  |  | 
10 | COc1ccc(-c2nncn2-c2ccc3nc(-c4ccccc4)oc3c2)cc1 |  |  |  |  |  | inactive |  | inactive | Non-toxic | Non-toxic | inactive
11 | O=[N+]([O-])c1ccc(-c2nncn2-c2ccc3nc(-c4ccccc4)oc3c2)cc1 |  |  |  | inactive |  | inactive |  | inactive |  |  | inactive
12 | CCCCCc1nncn1-c1ccc2nc(-c3ccccc3)oc2c1 |  |  |  | inactive |  | inactive |  | inactive |  |  | inactive
13 | NC(=O)N1c2ccccc2C=Cc2ccccc21 [CARBAMAZEPINE] | > 100 | 6.4 | <1.3 |  |  |  |  |  |  |  | 
14 | Clc1ccc(-c2nncn2-c2ccc3nc(-c4ccccc4)oc3c2)cc1 |  |  |  |  |  | inactive |  | inactive | Non-toxic | Non-toxic | inactive
15 | Clc1ccccc1-c1nncn1-c1ccc2nc(-c3ccccc3)oc2c1 |  |  |  | inactive |  | inactive |  | inactive | Non-toxic | Non-toxic | 
16 | CCCc1nncn1-c1ccc2nc(-c3ccccc3)oc2c1 |  |  |  |  |  | inactive |  | inactive |  | Non-toxic | 
17 | CCCCCCCCCc1nncn1-c1ccc2nc(-c3ccccc3)oc2c1 |  |  |  | inactive |  | inactive |  | inactive | Toxic | Toxic | 
18 | c1ccc(-c2nc3ccc(-n4cnnc4)cc3o2)cc1 | 69.8 | 9.7 | 4.1 | Active | 285 | Active | 29.5 | inactive |  | Non-toxic | inactive

— ChEMBL document CHEMBL3045922, “Synthesis of 6-(3-substituted-4H-1,2,4-triazol-4-yl)-2-phenylbenzo[d]oxazoles as potential anticonvulsant agents” (Med Chem Res, 2010)
